Source: PubChem BioAssay (NCI)
“And” between values parts separate entries of the source, which are not always exact repeats. Equal entries are not always repeated.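 Tested at 5 concentrations; 48 h exposure; 96-well plates; endpoints linearly interpolated, else capped at highest concentration. GI50 marks 50% less growth. TGI is the concentration that stops growth completely.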

What was measured:
Experiment in all cases: growth of human tumour cells (NCI), 48 h
[1] = system: SN12C renal
[2] = system: OVCAR-3 ovarian
[3] = system: ACHN renal
[4] = system: SF-539 CNS
[5] = system: NCI-H460 lung
[6] = system: 786-0 renal
[7] = system: UACC-62 melanoma
[8] = system: SNB-19 CNS
[9] = system: DU-145 prostate
[10] = system: TK-10 renal

Compound	TGI [1]	TGI [2] [µM]	TGI [3] [µM]	TGI [4]	TGI [5]	GI50 [6]	TGI [6]	TGI [7]	TGI [8] [µM]	TGI [9] [µM]	TGI [10]	GI50 [1] [µM]	GI50 [2] [µM]	GI50 [3] [µM]	GI50 [4] [µM]	GI50 [5] [µM]	GI50 [7] [µM]	GI50 [8] [µM]	GI50 [9] [µM]	GI50 [10] [µM]
CC#CC#C/C=C1\C=CC2(OC=CC2OC(C)=O)O1 (stereo not drawn)	36.5 µM and 31 µM	74.4	33.9	76.9 µM and 48.8 µM	65 µM and > 100 µM	44.3 µM and 18.1 µM	> 100 µM and 33.6 µM	52.3 µM and 33.2 µM	> 100	37.7	> 100 µM and 59.7 µM	–	–	–	–	–	–	–	–	–
O=C(Cc1ccc(Nc2ccnc(C(F)(F)F)c2)cc1)Nc1cc(Cl)ccc1O	38.5 µM	13.6	44.2	22 µM	27.9 µM	21.3 µM	58.6 µM	13.9 µM	38	38.1	56 µM	9.09	3.37	4.44	7.18	6.92	2.75	5.31	9.27	17.7
COc1cc(-c2nc(-c3ccc(-c4nc5ccc(F)cc5[nH]4)cc3)no2)cc(OC)c1OC	38.3 µM	5.83	13.6	18.7 µM	12.5 µM	3.61 µM	17.9 µM	6.61 µM	> 100	15.3	34.1 µM	3.59	2.56	3.72	3.38	2.97	2.35	5.62	3.96	8.27
Fc1cccc(Cl)c1Cn1c(-c2c(F)cccc2Cl)nc2ccccc21	30.8 µM	60.2	41.4	46.2 µM	34.1 µM	21 µM	42.6 µM	29.8 µM	48.1	56.1	39.8 µM	15.7	17.4	18.9	23.1	13.1	12.8	18.4	24.6	15.6
Oc1ccc2ccccc2c1N=Nc1ccc(Cl)cc1	> 100 µM	> 100	> 100	–	–	–	> 100 µM	> 100 µM	> 100	> 100	> 100 µM	–	–	–	–	–	–	–	–	–
CCCC(C)c1c(Cl)nc(Cl)nc1Cl (stereo not drawn)	48 µM	21.3	15.5	19 µM	45.6 µM	–	12.7 µM	–	35.6	28.3	37.4 µM	–	–	–	–	–	–	–	–	–
Cc1cc(NCc2cc(Nc3ccnc4cc(Cl)ccc34)ccc2F)nc(N2CCSCC2)n1	–	2.93	3.53	3.35 µM	–	1.6 µM	3.13 µM	–	60.7	15.7	4.68 µM	–	1.59	1.7	1.79	–	–	4.23	3.31	1.92
O=C(NO)c1ccc(Cn2c(=O)n(-c3ccccc3)c(=O)c3ccccc32)cc1	–	7.87	6.37	2.86 µM	9.19 µM	1.48 µM	3.2 µM	2.16 µM	> 100	> 100	8.08 µM	–	1.58	1.67	0.693	1.44	0.482	1.85	0.773	1.02
O=C1CC(c2ccsc2)c2snc(-c3ccc(Cl)cc3)c2N1 (stereo not drawn)	> 100 µM	4.78	> 100	> 100 µM	> 100 µM	7.65 µM	> 100 µM	> 100 µM	> 100	> 100	–	3.77	0.694	5.39	2.9	0.581	0.859	3.78	2.68	–
N#Cc1cc([N+](=O)[O-])ccc1NC(=O)C(=O)C(C(=O)c1ccc2ccccc2c1)C1OCc2ccccc21 (stereo not drawn)	46.5 µM	> 47.6	> 71.1	5.83 µM	20.5 µM	–	14.7 µM	36.4 µM	21.1	–	45.8 µM	–	–	–	–	–	–	–	–	–
c1ccc2c(c1)Sc1ccccc1N2C1CN2CCC1CC2 (stereo not drawn)	29.1 µM	31.5	36.1	28.3 µM	33.4 µM	–	25.9 µM	34.5 µM	46.7	–	27.7 µM	–	–	–	–	–	–	–	–	–
CC(=O)OCCOCNC(=S)N/N=C(\C)c1cccs1	> 100 µM	> 100	> 100	> 100 µM	> 100 µM	–	> 100 µM	> 100 µM	> 100	–	> 100 µM	–	–	–	–	–	–	–	–	–
O=C(Cc1csc2nc(-c3ccc(Br)cc3)cn12)N/N=C/c1ccc(Cl)cc1Cl	> 100 µM	> 100	53.6	63.8 µM	> 100 µM	25.8 µM	73.4 µM	67.7 µM	> 100	> 100	–	84.7	34.9	22.6	27.2	> 100	23.3	94.6	26.3	–
COc1cc(OC)c(F)c(COc2cnc(Nc3cnn(CCO)c3)nc2)c1F	> 100 µM	> 100	–	2.17 µM	> 100 µM	1.75 µM	> 100 µM	> 62 µM	> 100	> 100	> 27.9 µM	1.59	0.429	–	0.275	0.444	0.518	0.796	2.15	1.01
O=C(Oc1ccc2c(-c3ccccc3)c(C(=O)Nc3ccc(Cl)cc3)c(=O)oc2c1)c1ccccc1	> 100 µM	> 100	> 100	> 100 µM	> 100 µM	–	> 100 µM	> 100 µM	> 100	–	> 100 µM	–	–	–	–	–	–	–	–	–
C[N+](C)(C)CC(CC(=O)[O-])C1CC1 (stereo not drawn)	> 100 µM	> 100	> 100	> 100 µM	> 100 µM	–	> 100 µM	> 100 µM	> 100	–	> 100 µM	–	–	–	–	–	–	–	–	–
C=C1CCC2C(C)(CO)C(O)CCC2(C)C1C/C=C1/CCOC1=O (stereo not drawn)	> 100 µM	> 100	> 100	> 100 µM	> 100 µM	–	> 100 µM	> 100 µM	> 100	–	> 100 µM	–	–	–	–	–	–	–	–	–
